# Where “and” joins values, the source holds several entries; their conditions need not be identical. Identical values can stand only once.
# Key:
# Human D4R = biological target: T1, Human D4R (Homo sapiens, UniProt P21917); experiment: Human D4R binding
# T1 sequence (P21917 1-419): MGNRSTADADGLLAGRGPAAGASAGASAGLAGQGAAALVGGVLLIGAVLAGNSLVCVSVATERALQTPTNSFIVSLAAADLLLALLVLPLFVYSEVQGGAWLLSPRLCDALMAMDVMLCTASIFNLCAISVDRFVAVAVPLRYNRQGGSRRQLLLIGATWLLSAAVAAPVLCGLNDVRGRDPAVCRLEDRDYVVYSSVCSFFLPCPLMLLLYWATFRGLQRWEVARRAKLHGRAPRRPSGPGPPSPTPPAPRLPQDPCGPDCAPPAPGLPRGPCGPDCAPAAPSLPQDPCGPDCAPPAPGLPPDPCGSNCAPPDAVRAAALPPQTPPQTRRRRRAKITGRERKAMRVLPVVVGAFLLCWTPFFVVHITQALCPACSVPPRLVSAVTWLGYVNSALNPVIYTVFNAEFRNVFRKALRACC
# Serotonin 2b = biological target: T2, Serotonin 2b (Homo sapiens, UniProt P41595); experiment: FLIPR calcium assay, serotonin 2b; type: cell-based; conditions: for EC50: read-out: Serotonin 2b, Agonist EC50; for IC50: vs EC80 of agonist, read-out: Serotonin 2b, Antagonist IC50
# T2 construct: expressed in transfected cells
# T2 sequence (P41595 whole entry): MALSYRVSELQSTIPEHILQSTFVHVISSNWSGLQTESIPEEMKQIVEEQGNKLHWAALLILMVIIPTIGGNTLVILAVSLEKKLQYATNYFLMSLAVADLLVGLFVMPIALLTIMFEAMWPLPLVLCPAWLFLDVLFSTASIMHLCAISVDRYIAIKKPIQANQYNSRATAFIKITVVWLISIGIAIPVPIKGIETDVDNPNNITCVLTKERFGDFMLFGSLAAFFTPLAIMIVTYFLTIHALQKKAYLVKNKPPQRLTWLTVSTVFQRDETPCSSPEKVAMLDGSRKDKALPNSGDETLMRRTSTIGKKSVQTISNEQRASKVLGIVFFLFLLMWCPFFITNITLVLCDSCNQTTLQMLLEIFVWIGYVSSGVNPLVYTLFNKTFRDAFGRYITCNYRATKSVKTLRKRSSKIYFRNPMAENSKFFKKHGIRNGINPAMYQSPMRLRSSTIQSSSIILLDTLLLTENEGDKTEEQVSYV
# Protocol: Activation of the receptor by an agonist in this assay system results in an increase in intracellular calcium levels which is measured using a calcium specific dye. Cells were plated at 7500 cells per well (50 µl per well) in black walled clear bottomed 384-well plates 24 h prior to running the assay. […] Compound solution (10 µl) was added to each well by the FLIPR Tetra® instrument to measure agonist activity of the compound by measuring the change in fluorescence from baseline over a 60 s period (Ex […]). Subsequently 10 µl of agonist (EC80 value) was added to each well by the FLIPR Tetra® instrument to evaluate antagonist activity, with the change in fluorescence from baseline being measured over a 60 s period.
# (§1) In vitro data analysis: Agonist/antagonist curves were plotted from individual experiments, and EC50/IC50 values were determined using a four parameter logistic fit.
# Cannabinoid 1 = biological target: T3, Cannabinoid 1 (Homo sapiens, UniProt P21554); experiment: Beta arrestin enzyme fragment complementation assay, cannabinoid 1; type: cell-based; conditions: for EC50: read-out: Cannabinoid 1, Agonist EC50; for IC50: vs EC80 of agonist, read-out: Cannabinoid 1, Antagonist IC50
# T3 construct: expressed in transfected cells
# T3 sequence (P21554 whole entry, the tested form may be a part): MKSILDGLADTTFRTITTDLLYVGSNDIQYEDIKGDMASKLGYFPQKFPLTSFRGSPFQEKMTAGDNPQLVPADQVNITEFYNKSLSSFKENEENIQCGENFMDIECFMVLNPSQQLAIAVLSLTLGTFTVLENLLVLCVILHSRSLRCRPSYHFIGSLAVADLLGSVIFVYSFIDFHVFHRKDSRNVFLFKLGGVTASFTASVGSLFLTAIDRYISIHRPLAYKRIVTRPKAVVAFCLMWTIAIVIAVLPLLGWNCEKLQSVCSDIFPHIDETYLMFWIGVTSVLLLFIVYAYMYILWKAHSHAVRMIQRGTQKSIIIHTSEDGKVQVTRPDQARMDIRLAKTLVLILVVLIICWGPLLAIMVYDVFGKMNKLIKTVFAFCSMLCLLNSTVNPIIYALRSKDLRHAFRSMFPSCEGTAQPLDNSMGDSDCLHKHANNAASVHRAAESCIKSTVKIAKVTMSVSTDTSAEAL
# Protocol: (§2) Recruitment of β-arrestin to the GPCR, results in a functional enzyme that generates a chemiluminescent signal when substrate is added. Cells were plated at 5000 cells per well (40 µl per well) in black walled clear bottomed 384-well plates 24 h prior to running the assay. Medium was removed from the plates. For agonist studies 15 µl of HBSS/HEPES containing compound was added to the cells and the plate was incubated at room temperature for 90 min. For antagonist studies 15 µl of HBSS/HEPES containing compound was added to the cells and was incubated for 15 min prior to the addition of 15 µl of an EC80 concentration of agonist. The plate was subsequently incubated at room temperature for 90 min. Both assays were terminated by addition of 15 µl of a Beta-Glo® solution (Promega). Following an additional 30 min incubation the luminescence of each well was measured to determine the level of receptor activation.
# as §1
# Adrenergic Beta 2 = biological target: T4, Adrenergic Beta 2 (Homo sapiens, UniProt P07550); experiment: Beta arrestin enzyme fragment complementation assay, adrenergic beta 2; type: cell-based; conditions: for EC50: read-out: Adrenergic Beta 2, Agonist EC50; for IC50: vs EC80 of agonist, read-out: Adrenergic Beta 2, Antagonist IC50
# T4 construct: expressed in transfected cells
# T4 sequence (P07550 whole entry, the tested form may be a part): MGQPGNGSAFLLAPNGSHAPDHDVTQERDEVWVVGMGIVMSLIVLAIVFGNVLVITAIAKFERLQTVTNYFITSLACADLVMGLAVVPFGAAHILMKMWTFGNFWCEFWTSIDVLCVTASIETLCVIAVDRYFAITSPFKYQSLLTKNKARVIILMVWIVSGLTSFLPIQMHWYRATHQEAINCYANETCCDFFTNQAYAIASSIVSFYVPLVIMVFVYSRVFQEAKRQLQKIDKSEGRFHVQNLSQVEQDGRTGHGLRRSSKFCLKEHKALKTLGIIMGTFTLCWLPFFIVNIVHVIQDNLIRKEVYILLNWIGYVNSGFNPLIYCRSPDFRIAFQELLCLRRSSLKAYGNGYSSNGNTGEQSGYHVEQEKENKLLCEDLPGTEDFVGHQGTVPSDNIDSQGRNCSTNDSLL
# Protocol: as §2, §1
# Nav1.5 Sodium Channel = biological target: T5, Nav1.5 Sodium Channel (Homo sapiens, UniProt Q14524); experiment: FLIPR membrane potential assay, Nav1.5; type: cell-based; conditions: for EC50: read-out: Nav1.5 Sodium Channel Agonist EC50; for IC50: read-out: Nav1.5 Sodium Channel Antagonist IC50
# T5 construct: expressed in transfected cells
# T5 sequence (Q14524 whole entry): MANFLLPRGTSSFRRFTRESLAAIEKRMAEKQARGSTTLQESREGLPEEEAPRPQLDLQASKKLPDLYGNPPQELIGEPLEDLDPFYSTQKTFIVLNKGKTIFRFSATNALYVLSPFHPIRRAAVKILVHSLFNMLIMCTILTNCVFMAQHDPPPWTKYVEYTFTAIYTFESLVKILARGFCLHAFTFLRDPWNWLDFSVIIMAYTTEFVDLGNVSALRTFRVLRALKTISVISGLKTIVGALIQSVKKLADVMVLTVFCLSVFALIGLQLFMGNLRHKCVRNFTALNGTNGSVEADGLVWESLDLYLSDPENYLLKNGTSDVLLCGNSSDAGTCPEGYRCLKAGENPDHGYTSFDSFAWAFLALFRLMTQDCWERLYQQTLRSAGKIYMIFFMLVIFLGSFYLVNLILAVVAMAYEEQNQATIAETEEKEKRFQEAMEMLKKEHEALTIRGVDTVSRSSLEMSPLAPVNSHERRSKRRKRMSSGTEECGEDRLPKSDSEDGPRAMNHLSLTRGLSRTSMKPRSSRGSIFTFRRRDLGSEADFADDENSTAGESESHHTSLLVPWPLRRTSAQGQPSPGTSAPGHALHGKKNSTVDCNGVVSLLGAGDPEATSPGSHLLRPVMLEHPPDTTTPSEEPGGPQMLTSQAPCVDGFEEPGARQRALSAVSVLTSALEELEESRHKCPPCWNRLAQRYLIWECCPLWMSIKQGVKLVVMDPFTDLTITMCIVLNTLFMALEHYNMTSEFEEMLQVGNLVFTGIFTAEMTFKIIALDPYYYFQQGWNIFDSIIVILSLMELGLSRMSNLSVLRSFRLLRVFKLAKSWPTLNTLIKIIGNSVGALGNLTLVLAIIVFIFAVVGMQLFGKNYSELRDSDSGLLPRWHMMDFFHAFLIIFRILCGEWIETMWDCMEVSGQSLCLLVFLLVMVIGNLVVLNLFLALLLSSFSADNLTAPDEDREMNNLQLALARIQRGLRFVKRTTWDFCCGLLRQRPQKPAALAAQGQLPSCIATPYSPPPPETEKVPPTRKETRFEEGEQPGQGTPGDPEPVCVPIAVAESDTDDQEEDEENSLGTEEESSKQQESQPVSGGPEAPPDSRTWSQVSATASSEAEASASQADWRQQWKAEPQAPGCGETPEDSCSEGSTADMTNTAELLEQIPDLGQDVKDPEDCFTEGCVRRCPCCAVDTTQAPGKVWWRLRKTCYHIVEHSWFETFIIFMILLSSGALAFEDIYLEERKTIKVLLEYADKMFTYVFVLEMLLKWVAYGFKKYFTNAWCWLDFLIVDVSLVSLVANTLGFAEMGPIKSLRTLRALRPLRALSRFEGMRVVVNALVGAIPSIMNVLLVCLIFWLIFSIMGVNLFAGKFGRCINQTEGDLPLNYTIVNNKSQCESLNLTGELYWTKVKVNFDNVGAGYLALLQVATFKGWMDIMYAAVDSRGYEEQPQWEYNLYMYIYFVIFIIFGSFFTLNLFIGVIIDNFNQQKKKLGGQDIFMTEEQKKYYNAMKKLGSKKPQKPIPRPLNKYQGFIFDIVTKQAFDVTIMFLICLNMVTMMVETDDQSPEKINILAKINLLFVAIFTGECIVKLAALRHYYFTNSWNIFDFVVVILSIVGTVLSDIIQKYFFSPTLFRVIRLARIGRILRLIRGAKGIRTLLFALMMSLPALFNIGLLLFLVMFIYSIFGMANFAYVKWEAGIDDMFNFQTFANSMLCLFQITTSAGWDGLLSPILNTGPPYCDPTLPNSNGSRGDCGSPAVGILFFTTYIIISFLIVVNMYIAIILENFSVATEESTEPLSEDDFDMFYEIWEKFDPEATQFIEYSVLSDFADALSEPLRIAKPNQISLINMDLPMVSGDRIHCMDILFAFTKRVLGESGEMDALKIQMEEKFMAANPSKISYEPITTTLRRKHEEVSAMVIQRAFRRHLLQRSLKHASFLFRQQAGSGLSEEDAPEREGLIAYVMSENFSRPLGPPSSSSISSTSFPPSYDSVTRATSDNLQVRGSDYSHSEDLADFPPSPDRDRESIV
# Protocol: Sodium channel (Nav1.5) activity was assessed using a FLIPR® based membrane potential assay using cells that stably express the Nav1.5 sodium channel subtype. Cells were plated at 7500 cells per well (50 µl per well) in black walled clear bottomed 384-well plates 24 h prior to running the assay. Medium was removed from the plates and 80 µl of (HBSS)/HEPES containing membrane potential dye (Molecular Devices; Cat # R8123) was added to each well and the plate was returned to the incubator for 1 h to allow dye loading. Compound solution (10 µl) was added to each well by the FLIPR Tetra® instrument to measure agonist activity of the compound by measuring the change in fluorescence from baseline over a 60 s period (Ex 510–545 nM; Em 565–625 nM). Subsequently 10 µl of agonist (EC80 value) was added to each well by the FLIPR Tetra® instrument to evaluate antagonist activity, with the change in fluorescence from baseline being measured over a 60 s period.
# as §1
# Dopamine Transporter = biological target: T6, Dopamine Transporter (Homo sapiens, UniProt Q01959); experiment: Amine transporter dye uptake assay, DAT; type: cell-based
# T6 construct: expressed in transfected cells
# T6 sequence (Q01959 whole entry): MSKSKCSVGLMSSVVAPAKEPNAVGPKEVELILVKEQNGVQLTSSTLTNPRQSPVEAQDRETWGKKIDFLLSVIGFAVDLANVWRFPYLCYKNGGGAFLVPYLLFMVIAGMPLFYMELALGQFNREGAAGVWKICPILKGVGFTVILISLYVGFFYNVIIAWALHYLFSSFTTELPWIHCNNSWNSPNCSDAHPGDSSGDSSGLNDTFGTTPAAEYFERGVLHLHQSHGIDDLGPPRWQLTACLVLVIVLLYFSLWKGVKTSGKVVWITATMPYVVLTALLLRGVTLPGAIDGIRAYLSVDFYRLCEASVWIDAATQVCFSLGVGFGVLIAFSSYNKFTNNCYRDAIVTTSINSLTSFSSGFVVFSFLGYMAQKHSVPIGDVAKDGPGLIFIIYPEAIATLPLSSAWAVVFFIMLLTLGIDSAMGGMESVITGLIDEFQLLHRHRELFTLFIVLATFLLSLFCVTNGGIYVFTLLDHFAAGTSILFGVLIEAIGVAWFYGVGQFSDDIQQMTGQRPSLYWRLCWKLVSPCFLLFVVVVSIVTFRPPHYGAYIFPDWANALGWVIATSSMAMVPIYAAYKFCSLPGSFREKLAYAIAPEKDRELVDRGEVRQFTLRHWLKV
# Protocol: (§3) HBSS/HEPES containing compound (5 µl) was added to the wells of black walled clear bottomed 384-well plate. Transporter dye (25 µl) (Molecular Devices; Cat # R8174) was added to each well. Finally 15,000 cells (20 µl) stably expressing the amine transporter of interest were added to each well and the plate is incubated at 37 °C for 30 min (DAT) or 60 min (NET and SERT). The plate is transferred to the FLIPR Tetra® instrument and the fluorescence of each well was measured (Ex […]). The level of fluorescence measured directly relates to the level of uptake of the dye labelled amine, with a reduction in levels being related to an inhibition of the respective transporter.
# as §1
# [1] = biological target: T7, Norepinephrine Transporter (Homo sapiens, UniProt P23975); experiment: Amine transporter dye uptake assay, NET; type: cell-based; conditions: read-out: Norepinephrine Transporter, Inhibitor IC50
# T7 construct: expressed in transfected cells
# T7 sequence (P23975 whole entry, species assumed): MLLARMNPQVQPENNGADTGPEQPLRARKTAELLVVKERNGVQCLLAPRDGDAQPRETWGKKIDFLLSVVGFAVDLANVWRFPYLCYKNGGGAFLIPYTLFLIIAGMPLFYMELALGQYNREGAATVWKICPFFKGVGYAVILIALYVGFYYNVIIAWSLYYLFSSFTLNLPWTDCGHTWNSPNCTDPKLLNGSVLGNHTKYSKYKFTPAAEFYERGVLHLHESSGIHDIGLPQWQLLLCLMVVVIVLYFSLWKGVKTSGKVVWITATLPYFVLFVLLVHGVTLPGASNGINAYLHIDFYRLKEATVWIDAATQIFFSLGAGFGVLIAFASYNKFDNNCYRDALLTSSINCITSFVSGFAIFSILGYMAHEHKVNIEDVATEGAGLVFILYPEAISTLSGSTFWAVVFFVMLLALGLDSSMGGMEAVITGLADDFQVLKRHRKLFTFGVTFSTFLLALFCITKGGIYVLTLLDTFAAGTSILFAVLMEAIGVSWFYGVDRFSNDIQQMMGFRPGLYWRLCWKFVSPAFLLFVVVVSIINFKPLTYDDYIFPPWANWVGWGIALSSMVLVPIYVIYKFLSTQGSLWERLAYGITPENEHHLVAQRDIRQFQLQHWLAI
# Protocol: as §3, §1
# human D1R S188A mutant = experiment: cAMP assay, D1R mutant S188A; conditions: relative to wild-type D1R; each table line is one experiment (Experiment # 1-6)
# human D1R F289A mutant = experiment: cAMP assay, D1R mutant F289A; conditions: relative to wild-type D1R; each table line is one experiment (Experiment # 1-6)
# rat D1R (rD1R) = rat D1R (rD1R) (Rattus norvegicus, UniProt P18901); experiment: Rat D1R radioligand binding ([3H]-SCH23390, HEK293)
# Chain of rat D1R (rD1R) (P18901 whole entry): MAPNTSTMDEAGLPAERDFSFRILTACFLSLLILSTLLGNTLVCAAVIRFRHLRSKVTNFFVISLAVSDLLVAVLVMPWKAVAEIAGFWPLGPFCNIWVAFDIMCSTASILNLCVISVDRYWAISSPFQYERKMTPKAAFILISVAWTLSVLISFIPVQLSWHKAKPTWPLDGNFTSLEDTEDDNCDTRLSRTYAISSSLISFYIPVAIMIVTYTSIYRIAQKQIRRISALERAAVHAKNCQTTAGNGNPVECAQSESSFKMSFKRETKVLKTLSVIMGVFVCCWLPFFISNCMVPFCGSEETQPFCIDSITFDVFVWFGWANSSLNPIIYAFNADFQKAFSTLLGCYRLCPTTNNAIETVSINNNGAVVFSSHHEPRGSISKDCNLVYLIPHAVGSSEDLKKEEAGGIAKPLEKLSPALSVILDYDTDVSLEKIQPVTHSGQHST
# Protocol: Binding assays were performed using stably expressed human D1R LTK, HEK293 rat D1R (rD1R), CHO human D2R (hD2R), CHO human D3R, and Millipore CHEM-1 human D5R (HTS129M) cell lines or primary striatal tissue from cynomolgus monkey brain. […] These ligand and tissue concentrations were used in time course studies to determine linearity and equilibrium conditions for binding. Binding reached equilibrium with the specified amount of tissue by 30 min at 37 °C for hD1R, rD1R, mD1R, 20 min at 37 °C for D2R and D3R and 60 min at room temperature for D5R. […] Membrane radioligand levels were determined by liquid scintillation counting of the filter plates in 50 µl Ecolume. […] Ki values were calculated according to the Cheng-Prusoff equation.
Structure (SMILES),Ki (Human D4R),EC50 (Serotonin 2b),IC50 (Serotonin 2b),EC50 (Cannabinoid 1),IC50 (Cannabinoid 1),EC50 (Adrenergic Beta 2),IC50 (Adrenergic Beta 2),EC50 (Nav1.5 Sodium Channel),IC50 (Nav1.5 Sodium Channel),IC50 (Dopamine Transporter),IC50 [1],"fold shift of cAMP functional potency, S188A (EC50 mutant/ EC50 WT) (human D1R S188A mutant)","fold shift of cAMP functional potency, F289A (EC50 mutant/ EC50 WT) (human D1R F289A mutant)",Ki (rat D1R (rD1R))
Cc1cc(Oc2nccc3occc23)ccc1-c1c(C)cnnc1C [PF-1119],> 10 µM,> 10 µM,> 10 µM,> 10 µM,6.6 µM,> 10 µM,> 10 µM,> 10 µM,2.64 µM,> 10 µM,> 10 µM,,,
Cc1cc(Oc2cccc(O)c2O)ccc1-c1c(C)ncnc1C [PF-1437],> 10 µM,,,,,,,,,,,1.0 and 0.8 and 0.7,12.4 and 16.0,
Cc1n[nH]c(=O)c(C)c1-c1ccc(Oc2nccc3occc23)cc1F [PF-2334],> 10 µM,,,,,,,,,,,,,
Cc1cc(Oc2nccc3occc23)ccc1-c1c(C)ncc2nccn12 [PF-6142],,> 10 µM,> 10 µM,> 10 µM,2.08 µM,> 10 µM,> 10 µM,> 10 µM,1.09 µM,> 10 µM,> 10 µM,2.3 and 2.0,32.3 and 44.7,0.018 ± 0.004 µM
Cc1cc(Oc2nccc3occc23)ccc1-n1c(C)nc2cnccc21 [PF-8294],,> 10 µM,> 10 µM,> 10 µM,> 8.76 µM,> 10 µM,> 10 µM,> 10 µM,> 5.9 µM,> 10 µM,> 10 µM,,,0.164 ± 0.164 µM
Cc1cc(Oc2nccc3occc23)ccc1-c1c(C)ncnc1C [PF-8871],> 10 µM,> 10 µM,> 10 µM,> 10 µM,> 10 µM,> 10 µM,> 10 µM,> 10 µM,8.68 µM,> 10 µM,> 10 µM,0.6,27.9,0.021 ± 0.003 µM

# — publication PMC5813016 (Nature Communications, 2018)
